Laboratory results published in article PMC7958344, “Development of Novel Inhibitors Targeting the D-Box of the DNA Binding Domain of Androgen Receptor” (International Journal of Molecular Sciences, 2021).
Changes are numbered by the printed parent chain. Read-outs that look alike come from different tables or passages of the source.

Columns and labels:
[1] = Metabolic stability in human microsomes; type: in vitro ADME
Excerpt: We then tested the metabolic stability of these molecules using human microsomes. […] This could explain the lower potency of this compound in cell growth assays, as it is metabolized quickly in the media.

[2] = molecular target: T1, AR-LBD (Rattus norvegicus, UniProt P15207); test: Androgen displacement assay (Polar Screen Androgen Receptor Competitor Green Assay Kit, FluormoneAL Green); type: binding; conditions: for % Displacement (1 μM) / % Displacement (10 μM): Table 1
T1 construct: displace a fluorescent-tagged androgenic ligand (FluormoneAL Green) from the AR-LBD; purchased
T1 sequence (P15207 651-882 limits assumed): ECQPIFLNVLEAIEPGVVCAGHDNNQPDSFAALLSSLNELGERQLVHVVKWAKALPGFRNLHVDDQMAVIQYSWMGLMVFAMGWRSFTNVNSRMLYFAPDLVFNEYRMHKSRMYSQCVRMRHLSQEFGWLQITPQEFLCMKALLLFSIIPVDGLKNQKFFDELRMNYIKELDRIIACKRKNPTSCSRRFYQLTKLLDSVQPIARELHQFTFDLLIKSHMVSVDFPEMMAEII
Description: Androgen displacement was assessed with the Polar Screen Androgen Receptor Competitor Green Assay Kit as per the instructions of the manufacturer.

[3] = molecular target: T2, AR-V7 (Homo sapiens, UniProt P10275); test: AR-V7 transcriptional activity, doxycycline-inducible AR-V7 with ARR3tk-nanoLuciferase reporter in PC3 cells; type: cell-based; conditions: for IC50: PC3 doxycycline-inducible AR-V7, ARR3tk-nanoLuciferase reporter, read-out: IC50 for the inhibition of the AR-V7 transcription; for inhibition at 10 µM: PC-3, Supplementary Table 1, read-out: Inhibition Dox-V7 (10 μM)
T2 construct: expressed in transfected cells
T2 sequence (P10275 1-644 isoform P10275-3): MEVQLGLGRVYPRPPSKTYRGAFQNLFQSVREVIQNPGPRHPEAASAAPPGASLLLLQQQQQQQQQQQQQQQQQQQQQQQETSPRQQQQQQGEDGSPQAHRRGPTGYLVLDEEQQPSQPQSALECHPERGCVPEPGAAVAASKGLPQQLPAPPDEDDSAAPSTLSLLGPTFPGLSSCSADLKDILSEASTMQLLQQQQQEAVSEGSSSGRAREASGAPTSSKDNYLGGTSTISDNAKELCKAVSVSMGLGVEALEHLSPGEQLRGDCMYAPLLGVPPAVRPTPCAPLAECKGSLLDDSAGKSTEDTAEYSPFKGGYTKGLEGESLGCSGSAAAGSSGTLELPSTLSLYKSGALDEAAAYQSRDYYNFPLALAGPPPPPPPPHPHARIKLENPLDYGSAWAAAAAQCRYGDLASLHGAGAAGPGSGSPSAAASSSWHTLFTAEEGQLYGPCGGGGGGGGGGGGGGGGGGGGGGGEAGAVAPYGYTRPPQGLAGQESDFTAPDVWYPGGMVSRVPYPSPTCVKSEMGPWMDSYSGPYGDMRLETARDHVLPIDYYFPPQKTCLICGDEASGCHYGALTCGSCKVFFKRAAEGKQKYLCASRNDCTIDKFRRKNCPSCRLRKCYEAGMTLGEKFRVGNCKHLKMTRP
Excerpt: (§1) Compounds were first screened for their inhibition of AR-V7 transcriptional activity. To do so, we created a PC3 cell-based population that stably encodes (i) a doxycycline-inducible AR-V7 cDNA sequence (pLIX402 tet-inducible promoter, puromycin selection), and (ii) the ARR3tk-nanoLuciferase reporter construct. […] This allowed the screening of the compounds without using the error-prone method of transiently transfecting V7 and reporter constructs. The inhibition efficacy of compounds was measured using doxycycline treatment along with an increasing dose of compounds. From this screen, a panel of compounds was identified with some anti-dimerization activity (Supplementary Table S1). […] To rule out direct effects of the compounds on luciferase expression or PC3 cell viability, we used a PC3-dox inducible luciferase cell line in parallel.
(§2) LNCaP cells incorporating an AR2PB-eGFP reporter construct (2 × probasin) are previously described. eGFP and secreted PSA assays were performed as described. The mammalian two-hybrid assay was performed in PC3 cells by co-transfection of 15 ng pA-AR or pB-AR plasmids, with 12.5 ng PG5-NLuc reporter. PC3_iV7_3TKNluc or PC3_iNluc cells were seeded in DMEM +5% CSS at 5000 cells/well for 24 h, followed by adding doxycycline/compounds (18 h) and luminescence measurement. LNCaP and 22rv1 cells were starved in RPMI + CSS (48 h) before cell viability tests using the same conditions as above, followed by 30 μL/well PrestoBlue™ Reagent (1 h) and fluorescence measurement (TECAN F200).

[4] = test system: PC3-dox inducible luciferase cell line; test: Nanoluc counterscreen in PC3-dox inducible luciferase cell line; type: cell-based; conditions: Supplementary Table 1
Excerpt: as §1
as §2, with “The mammalian two-hybrid assay was performed in PC3 cells by co-transfection of 15 ng pA-AR or pB-AR plasmids, with 12.5 ng PG5-NLuc reporter.” left out

[5] = test system: PC3 cell line; test: Activity in the PC3 cell line; type: cell-based; conditions: off-target effects; result in words
[6] = test system: LNCaP cells; test: Cell viability (PrestoBlue), LNCaP; type: cell-based; conditions: for growth inhibition of LNCaP cell line: result in words
Description: (§3) VPC-17160 and VPC-17281 were further evaluated for their potential to inhibit the growth of prostate cancer cell lines LNCaP (AR-FL dependent) and 22rv1 (AR-V7 dependent).
as §2

[7] = molecular target: T3, full-length AR (Homo sapiens, UniProt P10275, T878A); test: eGFP AR transcriptional assay in LNCaP cells; type: cell-based; conditions: for eGFP FL (12 μM) / IC50: LNCaP-eGFP; for eGFP FL (12 μM): Supplementary Table 1; for inhibition of AR-FL expression at 12 μM: result in words; for IC50: read-out: estimated IC50, AR-FL transcriptional activity (eGFP)
T3 construct: endogenous in cells; host or cells: LNCaP with AR2PB-eGFP reporter
T3 sequence (P10275 1-920 T878A): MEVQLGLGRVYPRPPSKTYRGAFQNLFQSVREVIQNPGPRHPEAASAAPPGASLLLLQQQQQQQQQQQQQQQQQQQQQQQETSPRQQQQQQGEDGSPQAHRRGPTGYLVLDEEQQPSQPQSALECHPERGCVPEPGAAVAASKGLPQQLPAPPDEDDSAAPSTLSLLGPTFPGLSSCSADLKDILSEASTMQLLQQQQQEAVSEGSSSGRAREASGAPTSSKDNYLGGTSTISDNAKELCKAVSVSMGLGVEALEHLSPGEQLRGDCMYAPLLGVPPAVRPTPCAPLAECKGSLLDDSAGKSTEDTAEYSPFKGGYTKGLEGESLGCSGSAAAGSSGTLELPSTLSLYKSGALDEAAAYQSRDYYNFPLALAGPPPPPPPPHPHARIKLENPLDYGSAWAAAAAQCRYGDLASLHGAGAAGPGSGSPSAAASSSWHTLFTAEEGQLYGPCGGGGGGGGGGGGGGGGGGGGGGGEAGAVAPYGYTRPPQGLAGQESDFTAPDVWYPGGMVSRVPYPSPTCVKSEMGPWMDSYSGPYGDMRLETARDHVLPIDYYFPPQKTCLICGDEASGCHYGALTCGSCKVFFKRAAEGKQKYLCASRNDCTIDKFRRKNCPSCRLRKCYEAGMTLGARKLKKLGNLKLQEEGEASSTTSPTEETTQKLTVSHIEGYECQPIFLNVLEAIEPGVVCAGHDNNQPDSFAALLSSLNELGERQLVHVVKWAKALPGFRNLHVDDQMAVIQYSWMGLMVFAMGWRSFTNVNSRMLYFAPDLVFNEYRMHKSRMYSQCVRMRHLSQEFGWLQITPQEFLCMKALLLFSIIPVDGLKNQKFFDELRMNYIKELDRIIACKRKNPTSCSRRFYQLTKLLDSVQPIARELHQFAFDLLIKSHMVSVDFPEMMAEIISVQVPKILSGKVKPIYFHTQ
Description: In addition, these compounds were also tested for their ability to inhibit full-length AR transcriptional activity in LNCaP cells using an enhanced green fluorescent protein (eGFP) AR transcriptional assay, where the expression of eGFP is under the direct control of an androgen-responsive probasin-derived promoter.
as §2

[8] = molecular target: T4, full-length AR (Homo sapiens, UniProt P10275); test: Mammalian two-hybrid (M2H) AR dimerization assay in PC3 cells; type: cell-based; conditions: result in words
T4 construct: Full-length AR cDNA were cloned using Polymerase Incomplete Primer Extension; expressed in transfected cells; host or cells: PC3 (transient co-transfection of pA-AR, pB-AR and PG5-NLuc)
T4 sequence (P10275 1-920): T3 sequence (P10275 1-920 T878A) with A878T
Description: Next, the dimerization of full-length AR was assessed by a mammalian two-hybrid (M2H, [30]) assay, where target proteins were fused with Gal4-DBD or VP16 domains. […] High concentrations of VPC-17005 (>20 μM) were required for significant reduction in AR and AR-V7 homo-dimerization.
Figure 3 Anti-dimerization effects of VPC-17160 and VPC-17281 at 20 μM concentraction. PC3 cells were co-transfected with plasmids encoding pA-AR and pB-AR and pG5-NLuc-Gal4 specific reporter. Cells were treated with 0.1% DMSO control, VPC-17160, VPC-17281, or VPC-17005 followed by Nanoluciferase measurement. p < 0.05 (*), p < 0.01 (**) were considered statistically significant (two-tailed t-test). Two-tailed t-test for VPC-17005 vs. 17160 p < 0.05; VPC-17005 vs. VPC-17281 p < 0.05.
Full-length human AR (hARWT) was encoded on pcDNA3.1 expression plasmid. […]
as §2, with “The mammalian two-hybrid assay was performed in PC3 cells by co-transfection of 15 ng pA-AR or pB-AR plasmids, with 12.5 ng PG5-NLuc reporter.” left out

[9] = test system: prostate-specific antigen (PSA); test: Secreted PSA production in LNCaP cells; type: cell-based; conditions: Homo sapiens, read-out: IC50, secreted PSA levels
Description: To further validate compounds as AR inhibitors, we tested their activity by quantifying the effect on the production of endogenous prostate-specific antigen (PSA) in PCa cell lines. PSA is an AR-regulated serine protease and is widely used as a biomarker for PCa.
as §2

[10] = test system: 22rv1 cells; test: Cell viability (PrestoBlue), 22rv1; type: cell-based; conditions: for growth inhibition of 22rv1 cell line: result in words
Description: as §3, §2

[11] = microsomal stability, Table 1, read-out: Half-Life
[12] = read-out: half-life in microsomes (T1/2)

Row | half-life [1, 11] [min] | % Displacement (1 μM) [2] [%] | % Displacement (10 μM) [2] [%] | IC50 [3] [µM] | inhibition at 10 µM [3] [%] | half-life [1, 12] [min] | effect on the PC3 cell line [5] | eGFP FL (12 μM) [7] | inhibition of AR-FL expression at 12 μM [7] | IC50 [7] [µM] | reduction of dimerization at 20 μM [8] | IC50 [9] [µM] | hormone displacement at 50 μM ([2]; high concentrations (50 μM), result in words) | IC50 ([6]; Homo sapiens, LNCaP (AR-FL dependent), read-out: IC50, cell growth) [µM] | IC50 ([10]; Homo sapiens, 22rv1 (AR-V7 dependent), read-out: IC50, cell growth) [µM] | SMILES | Nanoluc Counterscreen (10 μM) [4] [%] | growth inhibition of LNCaP cell line [6] | growth inhibition of 22rv1 cell line [10]
1 | > 1000 |  |  |  |  |  |  |  |  |  |  |  |  |  |  | CNC(=O)c1ccc(N2C(=S)N(c3ccc(C#N)c(C(F)(F)F)c3)C(=O)C2(C)C)cc1F [Enzalutamide, reference compound] |  |  | 
2 | 3 | 10 | 29 | 6 | 70 | 3 | no effect | 76 | significant inhibition | 2 | full reduction of dimerization | 2 |  |  |  | O=C(NCc1cccc2ccccc12)NCC(O)(c1cccs1)c1cccs1 [VPC-17160] | 20 | inhibited the growth | inhibited the growth
3 | 90 | 0 | 0 | 6 | 70 | > 90 | some activity | 100 | significant inhibition | 5 | full reduction of dimerization | 6 | no significant hormone displacement | 25 | 10 | CC(O)(CNC(=O)C=Cc1ccnc2ccccc12)c1ccsc1 (stereo not shown) [VPC-17281] | 10 | inhibited the growth | inhibited the growth
